Assays:
THZ531 = compound: CN(C)C/C=C/C(=O)Nc1ccc(C(=O)N2CCC[C@@H](Nc3ncc(Cl)c(-c4c[nH]c5ccccc45)n3)C2)cc1 [THZ531]
Doxorubicin = compound: COc1cccc2c1C(=O)c1c(O)c3c(c(O)c1C2=O)C[C@@](O)(C(=O)CO)C[C@@H]3O[C@H]1C[C@H](N)[C@H](O)[C@H](C)O1 [Doxorubicin]
Ceritinib/LDK378 = compound: Cc1cc(Nc2ncc(Cl)c(Nc3ccccc3S(=O)(=O)C(C)C)n2)c(OC(C)C)cc1C1CCNCC1 [Ceritinib/LDK378]
[1] = compound: CCc1cnn2c(NCc3ccc[n+]([O-])c3)cc(N3CCCC[C@H]3CCO)nc12
Pictilisib/GDC0941 = compound: CS(=O)(=O)N1CCN(Cc2cc3nc(-c4cccc5[nH]ncc45)nc(N4CCOCC4)c3s2)CC1 [Pictilisib/GDC0941]
THZ1 = compound: CN(C)C/C=C/C(=O)Nc1ccc(C(=O)Nc2cccc(Nc3ncc(Cl)c(-c4c[nH]c5ccccc45)n3)c2)cc1 [THZ1]
Paclitaxel = compound: CC(=O)O[C@H]1C(=O)[C@@]2(C)[C@H]([C@H](OC(=O)c3ccccc3)[C@]3(O)C[C@H](OC(=O)[C@H](O)[C@@H](NC(=O)c4ccccc4)c4ccccc4)C(C)=C1C3(C)C)[C@]1(OC(C)=O)CO[C@@H]1C[C@@H]2O [Paclitaxel]
Cediranib/AZD2171 = compound: COc1cc2c(Oc3ccc4[nH]c(C)cc4c3F)ncnc2cc1OCCCN1CCCC1 [Cediranib/AZD2171]
INK128/MLN0128 = compound: CC(C)n1nc(-c2ccc3oc(N)nc3c2)c2c(N)ncnc21 [INK128/MLN0128]
[2] = compound: CNc1nc(-c2ccc3c(N)n[nH]c3c2)cc(N2C[C@@H](C(=O)NC3CCCCC3)CC[C@H]2C)n1
Neratinib/HKI272 = compound: CCOc1cc2ncc(C#N)c(Nc3ccc(OCc4ccccn4)c(Cl)c3)c2cc1NC(=O)/C=C/CN(C)C [Neratinib/HKI272]
LEE011/Ribociclib = compound: CN(C)C(=O)c1cc2cnc(Nc3ccc(N4CCNCC4)cn3)nc2n1C1CCCC1 [LEE011/Ribociclib]
[3] = compound: Cc1nn(C)c(COc2ccc(N3CCN(S(=O)(=O)N(C)C)CC3)cc2)c1-c1cccc2c(CCCOc3cccc4ccccc34)c(C(=O)O)n(CCN3CCOCC3)c12
Luminespib/NVP-AUY922 = compound: CCNC(=O)c1noc(-c2cc(C(C)C)c(O)cc2O)c1-c1ccc(CN2CCOCC2)cc1 [Luminespib/NVP-AUY922]
TGX221 = compound: CC1=CN2C(=O)C=C(N=C2C(=C1)C(C)NC3=CC=CC=C3)N4CCOCC4 [TGX221]
[4] = compound: CC(=O)c1c(C)c2cnc(Nc3ccc(N4CCNCC4)cn3)nc2n(C2CCCC2)c1=O
Cabozantinib = compound: COc1cc2nccc(Oc3ccc(NC(=O)C4(C(=O)Nc5ccc(F)cc5)CC4)cc3)c2cc1OC [Cabozantinib]
Dasatinib = compound: Cc1nc(Nc2ncc(C(=O)Nc3c(C)cccc3Cl)s2)cc(N2CCN(CCO)CC2)n1 [Dasatinib]
Volasertib/BI6727 = compound: CC[C@@H]1C(=O)N(C)c2cnc(Nc3ccc(C(=O)N[C@H]4CC[C@H](N5CCN(CC6CC6)CC5)CC4)cc3OC)nc2N1C(C)C [Volasertib/BI6727]
R0-3306 = compound: C1=CC2=C(C=CC(=C2)C=C3C(=O)NC(=NCC4=CC=CS4)S3)N=C1 [R0-3306]
senexin b = compound: CN1CCN(C(=O)c2ccc3cc(CCNc4ncnc5ccc(C#N)cc45)ccc3c2)CC1 [senexin b]
AZD1775 = compound: C=CCn1c(=O)c2cnc(Nc3ccc(N4CCN(C)CC4)cc3)nc2n1-c1cccc(C(C)(C)O)n1 [AZD1775]
AZD5363 = compound: NC1(C(=O)N[C@@H](CCO)c2ccc(Cl)cc2)CCN(c2nc[nH]c3nccc2-3)CC1 [AZD5363]
Torin2 = compound: C1=CC(=CC(=C1)N2C(=O)C=CC3=CN=C4C=CC(=CC4=C32)C5=CN=C(C=C5)N)C(F)(F)F [Torin2]
BSJ-03-123 = compound: CC(=O)c1c(C)c2cnc(Nc3ccc(N4CCN(CCOCCOCCOCCNC(=O)COc5cccc6c5C(=O)N(C5CCC(=O)NC5=O)C6=O)CC4)cn3)nc2n(C2CCCC2)c1=O [BSJ-03-123]
Buparlisib/NVP-BKM120 = compound: Nc1cc(C(F)(F)F)c(-c2cc(N3CCOCC3)nc(N3CCOCC3)n2)cn1 [Buparlisib/NVP-BKM120]
Olaparib/AZD2281 = compound: O=C(c1cc(Cc2n[nH]c(=O)c3ccccc23)ccc1F)N1CCN(C(=O)C2CC2)CC1 [Olaparib/AZD2281]
SHP099 = compound: CC1(CCN(CC1)C2=CN=C(C(=N2)N)C3=C(C(=CC=C3)Cl)Cl)N [SHP099]
[5] = compound: CCCCOc1c(C(=O)c2c(F)cc(C)cc2F)c[nH]c2nncc1-2
Alpelisib/BYL719 = compound: Cc1nc(NC(=O)N2CCC[C@H]2C(N)=O)sc1-c1ccnc(C(C)(C)C(F)(F)F)c1 [Alpelisib/BYL719]
Rucaparib = compound: CNCc1ccc(-c2[nH]c3cc(F)cc4c3c2CCNC4=O)cc1 [Rucaparib]
BVD523 = compound: CC(C)Nc1cc(-c2c[nH]c(C(=O)N[C@H](CO)c3cccc(Cl)c3)c2)c(Cl)cn1 [BVD523]
THZ-P1-2 = compound: CN(C)C/C=C/C(=O)NC1=CC=C(C=C1)C(=O)NC2=CC=CC(=C2)NC3=NC=NC(=C3)C4=CNC5=CC=CC=C54 [THZ-P1-2]
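Also: breast cancer and non-malignant breast epithelial cell lines, Deep Dye Drop or Dye Drop imaging, nine half-log doses, GR normalized to time-zero plates and DMSO-only controls.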

| Cell Line | GR50, 72 h (THZ531) [µM] | GR50, 72 h (Doxorubicin) [µM] | GR50, 72 h (Ceritinib/LDK378) [µM] | GR50, 72 h [1] [µM] | GR50, 72 h (Pictilisib/GDC0941) [µM] | GR50, 72 h (THZ1) [µM] | GR50, 72 h (Paclitaxel) [µM] | GR50, 72 h (Cediranib/AZD2171) [µM] | GR50, 72 h (INK128/MLN0128) [µM] | GR50, 72 h [2] [µM] | GR50, 72 h (Neratinib/HKI272) [µM] | GR50, 72 h (LEE011/Ribociclib) [µM] | GR50, 72 h [3] [µM] | GR50, 72 h (Luminespib/NVP-AUY922) [µM] | GR50, 72 h (TGX221) [µM] | GR50, 72 h [4] [µM] | GR50, 72 h (Cabozantinib) [µM] | GR50, 72 h (Dasatinib) [µM] | GR50, 72 h (Volasertib/BI6727) [µM] | GR50, 72 h (R0-3306) [µM] | GR50, 72 h (senexin b) [µM] | GR50, 72 h (AZD1775) [µM] | GR50, 72 h (AZD5363) [µM] | GR50, 72 h (Torin2) [µM] | GR50, 72 h (BSJ-03-123) [µM] | GR50, 72 h (Buparlisib/NVP-BKM120) [µM] | GR50, 72 h (Olaparib/AZD2281) [µM] | GR50, 72 h (SHP099) [µM] | GR50, 72 h [5] [µM] | GR50, 72 h (Alpelisib/BYL719) [µM] | GR50, 72 h (Rucaparib) [µM] | GR50, 72 h (BVD523) [µM] | GR50, 72 h (THZ-P1-2) [µM] |
| --- | --- | --- | --- | --- | --- | --- | --- | --- | --- | --- | --- | --- | --- | --- | --- | --- | --- | --- | --- | --- | --- | --- | --- | --- | --- | --- | --- | --- | --- | --- | --- | --- | --- |
| CAL851 | 0.0715 | 0.00552 | 0.74 | 0.00469 | 0.647 | 0.0085 | 0.00273 | 2.38 | 0.00883 | > 10 | 0.0339 | > 10 | > 10 | 0.00652 | > 10 | > 3.16 | 5.34 | 0.105 | 0.00327 | 6.55 | > 10 | 0.212 | > 10 | 0.00862 | 0.431 | 0.343 | 5.05 | > 10 | 0.00814 | 3.64 | – | – | – |
| HCC1187 | 0.0529 | 0.00119 | 1.49 | 0.00577 | 0.571 | 0.0149 | 0.000215 | – | 0.0661 | > 10 | 2.5 | > 10 | > 10 | 0.00363 | – | > 3.16 | – | 0.0343 | 0.0078 | – | > 10 | 0.0228 | – | 0.00305 | 6.39 | 0.619 | 3.46 | > 10 | – | > 10 | > 10 | > 10 | – |
| UACC812 | > 1 | 0.00203 | 3.48 | 0.0303 | 0.106 | 0.691 | 0.00042 | 1.04 | 0.0021 | 0.884 | 0.00313 | 0.0124 | > 10 | 0.00518 | 0.0345 | 0.0179 | 5.86 | 0.00102 | 0.00975 | 5.09 | – | 3.03 | 8.81 | 0.00356 | 0.836 | 0.0515 | 8.69 | > 10 | < 0.001 | 0.588 | > 10 | 1.32 | 3.78 |
| SUM185PE | 0.136 | > 3.16 | 0.983 | 0.0261 | 0.127 | 0.0143 | 0.00463 | 0.0358 | 0.00558 | > 10 | 0.537 | > 10 | > 10 | 0.00341 | > 10 | > 3.16 | 1.71 | 0.0196 | 0.0238 | > 10 | – | 4.52 | 8.7 | 0.0124 | > 10 | 0.659 | > 10 | > 10 | > 10 | 0.318 | > 10 | > 10 | 5.83 |
| HCC1954 | 0.362 | 0.00718 | 2.33 | 0.0126 | 0.944 | 0.0995 | 0.0025 | 4.08 | 0.0142 | > 10 | 0.0672 | > 10 | > 10 | 0.0103 | > 10 | > 3.16 | > 10 | 1.86 | 0.00659 | 6.63 | – | 1.58 | 3.06 | 0.0097 | 1.07 | 0.523 | > 10 | > 10 | < 0.001 | 1.23 | > 10 | 2.94 | 5.9 |
| MDAMB157 | – | 0.00323 | 0.484 | 0.0177 | 2.05 | – | 0.00205 | 0.825 | 0.0318 | – | 0.796 | – | > 10 | 0.00418 | > 10 | > 3.16 | 2.78 | 0.0605 | 0.00692 | – | – | – | – | 0.0344 | – | 1.28 | 5.39 | – | – | 9.77 | – | – | – |
| SUM190PT | 0.0528 | 0.025 | 0.528 | 0.0215 | 3.1 | 0.00565 | 0.000878 | > 10 | 0.0134 | 2.22 | 1.88 | 0.0246 | 6.86 | 0.00558 | > 10 | 0.0436 | 6.1 | 0.212 | 0.0086 | 4.76 | – | 0.0515 | 2.35 | 0.00524 | 0.0593 | 1.04 | > 10 | > 10 | 0.0016 | > 10 | > 10 | 3.33 | 0.303 |

From the supplement of paper PMC9663587
